Results: patent US20090010923A1, “TREATMENT OF CANCER WITH ANTI-MUSCARINIC RECEPTOR AGENTS” (University of Maryland, Baltimore, priority 2007, published 2009)
“Also recorded” adds a separate entry of the source.

Assays:
[1] = tested on: CHO cells expressing rat M3R (CHO-rM3R); assay: p44/42 MAPK phosphorylation in CHO cells expressing rat M3R; format: cell-based
Source text: (§1) In H508 colon cancer cells, acetylcholine (ACh) activates p44/42 MAPK and p90RSK, which is a nuclear response protein that regulates gene expression and the cell cycle.

H508 cells [2] = assay: p44/42 MAPK phosphorylation/activation in H508 colon cancer cells; format: cell-based, human
Source text: as §1

WT and M3R−/− mice = assay: AOM murine colon cancer model (WT and M3R-/- mice); format: in vivo, mouse; details: for colon tumor number: 20 weeks
Method: WT and M3R^−/− male mice (129S6/SvEvTac×CFl; 50%/50%) were treated for 6 wks in which 48 animals received weekly intraperitoneal (ip) PBS (control) or AOM (10 mg/kg). The AOM mouse model is a well-established, commonly used model that mimics human colon carcinogenesis. AOM, an intermediate in the metabolism of 1,2-dimethylhydrazine to the alkylating ion methyldiazonium, is a well-known colorectal-specific pro carcinogen. AOM-induced rodent tumors mimic human colon cancer in that most tumors arise in the colon, form grossly visible exophytic polypoid or plaque-like growths, and have a microscopic appearance similar to that of human lesions. Molecular changes in AOM-induced tumors, including β-catenin and p53 mutations, which also mimic those in human colon cancer. […] Short-term study end-points are identified (e.g. aberrant crypt foci (ACF), β-catenin-accumulating crypts (BCAC) and BrdUrd staining) and potential toxicity was evaluated, a smaller group of mice is euthanized early, upon completion of AOM treatment. During the study, WT and M3R^−/− mice were given weekly (for 6 weeks) intraperitoneal (ip) PBS (control; n=10 WT-PBS mice) or AOM (10 mg/kg; n=22 WT-AOM and 16 WT and M3R^−/−-AOM mice). […] Animals were housed under identical conditions and fed standard mouse chow. Mice were weighed weekly, observed for evidence of tumor formation (e.g., anal bleeding) and euthanized at 20 weeks. Colon length was measured, segments opened longitudinally, and tumors identified and photographed using a Nikon SMZ1500 dissecting microscope. Tumor number and diameter were measured using Image-Pro software and tumor volume was calculated: vol=½ width×length^2. Two hours before euthanasia, mice received intraperitoneal injection of BrdU (Sigma-Aldrich) (50 mg/kg) to label S-phase cells, a marker of proliferation. BrdU labeling was determined after immunostaining with anti-BrdU antibody (BD Bioscience) by counting BrdU-positive nuclei in 1000 cells (data expressed as percent of total cells that were BrdU-positive). As a marker of apoptosis, we used immunostaining with anti-activated caspase-3 antibody (Cell Signaling Technology). Only complete crypts were evaluated and investigators were masked to treatment group. For analysis of both BrdU and activated caspase-3 staining, only tissue from the distal half of the colon was examined.

H508 cells [3] = assay: Cell proliferation, sulforhodamine B (SRB) colorimetric assay, H508 cells; format: cell-based, human; details: 5 days, 37° C.; for proliferation of H508 cells: alone, cells co-express M3R and EGFR
Method: (§2) FIG. 1 depicts bile acid-induced colon cancer cell proliferation which requires M3R expression and activation in H508 and SNU-C4 cells. […] Cell proliferation was determined using the sulforhodamine B (SRB) colorimetric assay. Mean±SEM of 3 exp.
(§3) Cells that are known to express both EGFR and M3R were treated with several M3R antagonists and bile acid conjugates to determine if M3R ligand binding affected EGFR activation. […] Cell proliferation was determined using the sulforhodamine B (SRB) colorimetric assay. […] Mean±SEM of 3 exp.
MAPK activation was detected with 10 μM and maximal with 300 μM DCT. […] DCT-induced MAPK activation is rapid and reversible. MAPK activation is detected within 1 min, maximal by 10-20 min and returns to basal by 70 min. Collectively these findings emphasize the importance of co-expression of M3R and EGFR for both ACh- and bile acid-induced colon cancer cell proliferation, and define relevant DCT concentrations.

SNU-C4 cells = assay: Cell proliferation, sulforhodamine B (SRB) colorimetric assay, SNU-C4 cells; format: cell-based, human; details: 5 days, 37° C., alone; cells express EGFR but not M3R
Method: as §2, §3

colon cancer cells [4] = assay: Post-EGFR PI3K/Akt and GSK-3 signaling in colon cancer cells; format: cell-based
Source text: The rationale for including both murine colon cancer models in this study is to observe important differences between these cancer models. Although the Apc^Min/+ genotype mimics more closely the human condition (e.g. FAP), the AOM-treated mouse phenotype is more similar to human colon cancer. […] Additionally, Apc^Min/+ mice provide an opportunity to study the relationship between M3R and activation and expression of genes in the Wnt/β-catenin signaling pathway. Binding of Wnt to its cell surface receptor (Frizzled) leads to activation of β-catenin (nuclear translocation and binding to Tcf/LEF, resulting in transcription of important target genes, including cyclin D1). Apc, is a scaffold protein that promotes GSK-3α/β-mediated phosphorylation of β-catenin; phosphorylated β-catenin is targeted for proteosomal degradation, thereby preventing nuclear translocation and pro-proliferative gene transcription. Mutated Apc in Apc^Min/+ mice results in reduced β-catenin phosphorylation, thereby promoting nuclear translocation and pro-proliferative actions. […] These findings provide strong evidence that bile acid-activated M3R signaling can promote pro-proliferative actions of β-catenin. The Apc^Min/+ mouse provides an excellent model to elucidate the role of M3R activation and expression in Wnt/β-catenin signaling.
(§4) apoptosis, or both. Deoxycholic acid induces apoptosis.

colon cancer cells [5] = assay: Caspase-3 activation (apoptosis) in colon cancer cells; format: cell-based
Source text: as §4

[6] = tested on: muscarinic receptors on gastric chief cells; assay: Competition for binding with a muscarinic radioligand, gastric chief cells
[7] = tested on: muscarinic receptors on gastric chief cells; assay: IP formation, gastric chief cells; format: cell-based
[8] = tested on: muscarinic receptors on gastric chief cells; assay: Pepsinogen secretion from gastric chief cells; format: cell-based
[9] = cited from earlier work
M1R and M3R = tested on: M1R and M3R
Source text: Muscarinic receptor subtypes were expressed in murine gastric chief cells using M1R^−/−, M3R^−/− and M1/3R^−/− mice. […] The mice were generated using gene targeting.

In the case of CC(=O)OCC[N+](C)(C)C [ACh, acetylcholine], the “ACh-induced p44/42 MAPK phosphorylation” value [1] is reported as 27 fold and the “ACh-induced p44/42 MAPK phosphorylation” value (H508 cells [2]; H508 cells) is reported as 14 fold.
In the case of CN=[N+](C)[O-] [AOM, azoxymethane], the “BrdU-positive cells in colon epithelium” value (WT and M3R−/− mice; AOM-treated M3R-/- mice) is reported as 7.2±0.9%, the adenocarcinomas/mouse (WT and M3R−/− mice; AOM-treated M3R-/- mice) is reported as 0.6±0.1 and the mice with adenomas (WT and M3R−/− mice; AOM-treated M3R-/- mice) is reported as 6%. The tumor volume (WT and M3R−/− mice; AOM-treated M3R-/- mice) was 8.1±1.5 mm^3, the colon tumor number (WT and M3R−/− mice; AOM-treated M3R-/- mice) was 3.2±0.3 tumors/colon and the “BrdU-positive cells in colon epithelium” value (WT and M3R−/− mice; AOM-treated WT mice) was 16.6±4.0%. It also gave an adenocarcinomas/mouse (WT and M3R−/− mice; AOM-treated WT mice) of 1.7±0.4, a mice with adenomas (WT and M3R−/− mice; AOM-treated WT mice) of 36% and a tumor volume (WT and M3R−/− mice; AOM-treated WT mice) of 20.3±4.1 mm^3. For the same molecule, the “increase in BrdU-positive epithelial cells” value (WT and M3R−/− mice; AOM-treated WT mice vs PBS-treated WT, 10 mg/kg ip weekly x 6 wks, 20 wks) was 5 fold, the colon tumor number (WT and M3R−/− mice; AOM-treated WT mice) was 5.3±0.5 tumors/colon and the “number of apoptotic cells (activated caspase-3)” value (WT and M3R−/− mice; PBS-treated WT, AOM-treated WT and M3R-/- mice) was “no significant difference”. The increase in tumors/animal (WT and M3R−/− mice; WT mice treated with AOM) was 5 fold.
For C[C@H](CCC(=O)NCC(=O)O)[C@H]1CC[C@H]2[C@@H]3CC[C@@H]4C[C@H](O)CC[C@]4(C)[C@H]3C[C@H](O)[C@]12C [DCG], the “proliferation of H508 cells” value (H508 cells [3]) was “stimulate proliferation” and the “proliferation of SNU-C4 cells” value (SNU-C4 cells) was “do not significantly alter proliferation”.
For C[C@H](CCC(=O)NCCS(=O)(=O)O)[C@H]1CC[C@H]2[C@@H]3CC[C@@H]4C[C@H](O)CC[C@]4(C)[C@H]3C[C@H](O)[C@]12C [DCT, Deoxycholyltaurine], the “proliferation of H508 cells” value (H508 cells [3]) was “stimulate proliferation; also recorded: stimulated after 5 days”, the “DCT concentration at which MAPK activation was detected” value (H508 cells [2]) was 10 µM and the “DCT concentration at which MAPK activation was maximal” value (H508 cells [2]) was 300 µM. The “time at which MAPK activation is detected” value (H508 cells [2]) was at most 1 min, the “time at which MAPK activation returns to basal” value (H508 cells [2]) was at most 70 min and the “time of maximal MAPK activation” value (H508 cells [2]) was 10 to 20 min. The “phosphorylation of GSK-3α/β” value (colon cancer cells [4]; colon cancer cells) was “stimulates an inactivating phosphorylation”, the “post-EGFR PI3K/Akt signaling” value (colon cancer cells [4]; preliminary studies) was “activates” and the “DCT-induced apoptosis (caspase-3 activation)” value (colon cancer cells [5]) was “no evidence of DCT-induced apoptosis”. For the same molecule, the “proliferation of SNU-C4 cells” value (SNU-C4 cells) was “do not significantly alter proliferation”.
In the case of C[C@H](CCC(=O)NCCS(=O)(=O)O)[C@H]1CC[C@H]2[C@@H]3CC[C@@H]4C[C@H](O)CC[C@]4(C)[C@H]3CC[C@]12C [LCT, lithocholyltaurine], the “proliferation of H508 cells” value (H508 cells [3]) is reported as “stimulate proliferation”, the “proliferation of SNU-C4 cells” value (SNU-C4 cells) is reported as “do not significantly alter proliferation” and the “competition for binding with a muscarinic radioligand” value (shortened to “competition for binding”) [6] is reported as “competed for binding”. The IP formation [7] was “increased IP formation” and the pepsinogen secretion [8] was “stimulating pepsinogen secretion”.
With CN1[C@@H]2CC[C@H]1C[C@@H](OC(=O)C(CO)c1ccccc1)C2 (stereo partly drawn) [atropine] the “inhibition of actions of DCT on H508 proliferation” value (H508 cells [3]; with DCT) was “inhibited” and the “inhibition of the actions of LCT” value [8] was “inhibited the actions of LCT”.
For CCCC[N+]1(C)[C@@H]2C[C@@H](OC(=O)[C@H](CO)c3ccccc3)C[C@H]1[C@@H]1O[C@@H]12 (stereo partly drawn) [scopolamine butylbromide], the activity of metabolites ([9]; in vivo) is given as “inactive”, the “half-life of the terminal elimination phase” value ([9]; in vivo) is given as “about 5 hr” and the protein binding ([9]; in vivo) is given as “low”. The blood-brain barrier crossing ([9]; quaternary ammonium derivative) was “does not cross the blood-brain barrier”.
In the case of NCCS(=O)(=O)O [taurine], the “competition for binding” value [6] is reported as “did not alter”, the IP formation [7] is reported as “did not alter” and the pepsinogen secretion [8] is reported as “did not alter”.
In the case of cholecystokinin [cholecystokinin (CCK)], the agonist-induced pepsinogen secretion (M1R and M3R) is reported as “not altered”.
With cholyltaurine the “competition for binding” value [6] was “did not alter”, the IP formation [7] was “did not alter” and the pepsinogen secretion [8] was “did not alter”.
